Common to all, as to experiment: Kinase assay, binding constants (Kd), kinase-tagged T7 phage, qPCR
Background: In qPCR the cycle at which signal appears reflects the starting amount.

One test addresses FGFR1 (Homo sapiens (Human), UniProt P11362). As for the experimental part: (§1) Kinase-tagged T7 phage strains were prepared in an E. coli host derived from the BL21 strain. E. coli were grown to log-phase and infected with T7 phage and incubated with shaking at 32° C. until lysis. The lysates were centrifuged and filtered to remove cell debris. Streptavidin-coated magnetic beads were treated with biotinylated small molecule ligands for 30 minutes at room temperature to generate affinity resins for kinase assays. The liganded beads were blocked with excess biotin and washed with blocking buffer SeaBlock (Pierce), […], 1 mM DTT to remove unbound ligand and to reduce non-specific binding.
(§2) Test compounds were prepared as 111λ stocks in 10000 DMS0. Kds were determined using an 11-point 3-fold compound dilution series with three DMSO control points. […] The compounds were then diluted directly into the assays such that the final concentration of DMSO was 0.9%. All reactions performed in polypropylene 384-well plate. Each was a final volume of 0.02 ml. […] The beads were then re-suspended in elution buffer (1×PBS, 0.05% Tween […] non-biotinylated affinity ligand) and incubated at room temperature with shaking for 30 minutes. The kinase concentration in the eluates was measured by qPCR.
(§3) Binding constants were calculated with a standard dose-response curve using the Hill equation: […]
(§4) The Hill Slope was set to −1. Curves were fitted using a non-linear least square fit with the Levenberg-Marquardt algorithm.

The next test addresses FGFR2 (Homo sapiens (Human), UniProt P21802). As for the experimental part:
as §1, §2, §3, §4

The target of the next test is FGFR3 (Homo sapiens (Human), UniProt P22607). As for the experimental part:
as §1, §2, §3, §4

The next test concerns the target FGFR3 (V555M) (Homo sapiens (Human), UniProt P22607, V555M). Particulars: V555M mutant. As to the method:
as §1, §2, §3, §4

The target in another test is FGFR4 (Homo sapiens (Human), UniProt P22455). As for the experimental part:
as §1, §2, §3, §4

Chain of FGFR3 (P22607 23-806): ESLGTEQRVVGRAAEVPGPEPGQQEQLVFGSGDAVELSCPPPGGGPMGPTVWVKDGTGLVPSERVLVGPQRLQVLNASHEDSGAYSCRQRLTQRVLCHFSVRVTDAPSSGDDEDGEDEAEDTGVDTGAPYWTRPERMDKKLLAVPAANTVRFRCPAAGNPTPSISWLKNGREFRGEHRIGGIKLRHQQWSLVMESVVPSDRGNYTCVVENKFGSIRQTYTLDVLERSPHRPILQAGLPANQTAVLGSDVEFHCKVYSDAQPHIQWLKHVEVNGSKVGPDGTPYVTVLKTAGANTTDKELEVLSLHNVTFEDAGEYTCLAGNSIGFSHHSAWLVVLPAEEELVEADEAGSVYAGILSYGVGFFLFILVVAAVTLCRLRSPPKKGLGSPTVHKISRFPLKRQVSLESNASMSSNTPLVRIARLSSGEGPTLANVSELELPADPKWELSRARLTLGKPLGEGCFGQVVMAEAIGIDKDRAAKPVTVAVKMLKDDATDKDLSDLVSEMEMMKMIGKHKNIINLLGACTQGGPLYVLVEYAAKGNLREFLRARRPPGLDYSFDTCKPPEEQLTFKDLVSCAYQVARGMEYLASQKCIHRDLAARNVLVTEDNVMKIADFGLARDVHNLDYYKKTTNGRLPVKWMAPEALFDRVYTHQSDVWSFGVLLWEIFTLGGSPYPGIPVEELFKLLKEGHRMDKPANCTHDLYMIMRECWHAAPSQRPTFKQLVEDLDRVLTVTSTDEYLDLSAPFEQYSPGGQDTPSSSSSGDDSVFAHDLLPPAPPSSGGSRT
Chain of FGFR1 (P11362 22-822): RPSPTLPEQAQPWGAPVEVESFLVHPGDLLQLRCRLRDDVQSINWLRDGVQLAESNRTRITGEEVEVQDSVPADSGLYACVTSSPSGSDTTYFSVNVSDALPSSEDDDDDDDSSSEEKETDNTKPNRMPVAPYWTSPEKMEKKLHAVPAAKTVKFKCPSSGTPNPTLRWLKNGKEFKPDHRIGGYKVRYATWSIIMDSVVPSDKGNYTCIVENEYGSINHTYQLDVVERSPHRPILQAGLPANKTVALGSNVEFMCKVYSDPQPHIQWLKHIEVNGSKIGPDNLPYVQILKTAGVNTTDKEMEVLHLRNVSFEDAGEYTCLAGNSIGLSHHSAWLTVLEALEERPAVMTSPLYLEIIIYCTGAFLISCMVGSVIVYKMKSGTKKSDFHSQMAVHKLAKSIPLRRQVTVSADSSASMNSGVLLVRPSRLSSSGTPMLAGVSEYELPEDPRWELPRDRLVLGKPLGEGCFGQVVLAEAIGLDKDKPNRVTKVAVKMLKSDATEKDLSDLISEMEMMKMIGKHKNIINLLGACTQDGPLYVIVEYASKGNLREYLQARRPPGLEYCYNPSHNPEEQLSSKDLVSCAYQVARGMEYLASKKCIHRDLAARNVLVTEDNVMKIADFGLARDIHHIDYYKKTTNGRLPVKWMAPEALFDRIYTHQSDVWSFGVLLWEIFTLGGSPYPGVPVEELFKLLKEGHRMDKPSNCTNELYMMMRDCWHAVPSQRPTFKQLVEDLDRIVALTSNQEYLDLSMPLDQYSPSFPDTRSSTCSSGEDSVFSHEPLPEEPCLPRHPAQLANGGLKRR
Chain of FGFR4 (P22455 22-802): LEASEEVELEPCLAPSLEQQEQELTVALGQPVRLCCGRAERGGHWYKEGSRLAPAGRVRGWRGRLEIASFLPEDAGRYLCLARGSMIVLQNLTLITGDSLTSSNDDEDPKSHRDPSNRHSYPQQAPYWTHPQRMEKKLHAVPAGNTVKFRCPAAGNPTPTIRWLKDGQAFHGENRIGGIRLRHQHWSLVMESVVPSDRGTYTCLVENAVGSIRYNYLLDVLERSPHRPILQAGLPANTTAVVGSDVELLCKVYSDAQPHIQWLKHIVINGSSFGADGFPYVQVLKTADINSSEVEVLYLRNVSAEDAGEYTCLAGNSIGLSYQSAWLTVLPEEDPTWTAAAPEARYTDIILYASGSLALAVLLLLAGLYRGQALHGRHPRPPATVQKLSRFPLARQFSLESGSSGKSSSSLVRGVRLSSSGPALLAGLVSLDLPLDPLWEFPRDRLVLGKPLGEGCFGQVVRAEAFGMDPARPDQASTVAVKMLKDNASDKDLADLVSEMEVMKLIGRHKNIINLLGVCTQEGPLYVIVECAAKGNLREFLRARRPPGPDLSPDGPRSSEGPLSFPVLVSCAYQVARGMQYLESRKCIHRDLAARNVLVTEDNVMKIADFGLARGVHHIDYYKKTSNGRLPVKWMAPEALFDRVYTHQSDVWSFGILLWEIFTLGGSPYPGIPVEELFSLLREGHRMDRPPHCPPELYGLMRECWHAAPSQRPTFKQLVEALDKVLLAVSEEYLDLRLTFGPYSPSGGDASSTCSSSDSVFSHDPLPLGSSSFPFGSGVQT
Chain of FGFR3 (V555M) (P22607 23-806 V555M): as the sequence (P22607 23-806) above, with V533M counted along it
Chain of FGFR2 (P21802 22-821): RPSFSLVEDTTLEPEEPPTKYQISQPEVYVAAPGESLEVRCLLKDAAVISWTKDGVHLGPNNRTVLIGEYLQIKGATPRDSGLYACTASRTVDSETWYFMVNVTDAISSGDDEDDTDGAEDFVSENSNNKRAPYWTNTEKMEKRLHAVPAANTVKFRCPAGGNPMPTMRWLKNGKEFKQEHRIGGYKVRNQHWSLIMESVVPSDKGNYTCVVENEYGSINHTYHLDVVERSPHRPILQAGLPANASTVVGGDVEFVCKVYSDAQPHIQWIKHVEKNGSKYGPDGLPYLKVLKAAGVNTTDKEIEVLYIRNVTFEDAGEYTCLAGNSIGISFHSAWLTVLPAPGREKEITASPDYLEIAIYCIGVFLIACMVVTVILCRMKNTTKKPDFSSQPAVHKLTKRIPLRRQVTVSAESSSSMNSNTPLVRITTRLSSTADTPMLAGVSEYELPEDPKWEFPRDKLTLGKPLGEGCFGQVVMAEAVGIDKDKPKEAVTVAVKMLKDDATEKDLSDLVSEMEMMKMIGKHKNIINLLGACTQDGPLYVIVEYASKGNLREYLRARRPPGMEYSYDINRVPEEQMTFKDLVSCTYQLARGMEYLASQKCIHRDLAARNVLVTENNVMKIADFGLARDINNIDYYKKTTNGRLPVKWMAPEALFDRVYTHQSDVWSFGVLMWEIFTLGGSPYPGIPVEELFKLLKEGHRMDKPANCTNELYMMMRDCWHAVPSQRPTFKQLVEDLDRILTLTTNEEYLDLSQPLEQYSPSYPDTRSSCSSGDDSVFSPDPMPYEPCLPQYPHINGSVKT

In general, Kd refers to the concentration at which binding is half-saturated. Low values mean tighter binding, high ones weaker binding. Take `C[C@@H](Oc1ccc2[nH]nc(-c3ccc(N4CC5(CCNCC5)C4)nc3)c2c1)c1c(Cl)cncc1Cl` [Example 110, 3-[6-(2,7-diazaspiro[3.5]nonan-2-yl)-3-pyridyl]-5-[(1R)-1-(3,5-dichloro-4-pyridyl)ethoxy]-1H-indazole]: the dissociation constant Kd at FGFR1, on FGFR2, at FGFR3, on FGFR3 (V555M) and on FGFR4 was 1 to 20 nM each time.
Take `C[C@@H](Oc1ccc2[nH]nc(-c3cnc(N4CC5(CNC5)C4)nc3)c2c1)c1c(Cl)cncc1Cl` [Example 118, 3-[2-(2,6-diazaspiro[3.3]heptan-2-yl)pyrimidin-5-yl]-5-[(1R)-1-(3,5-dichloro-4-pyridyl)ethoxy]-1H-indazole]: the Kd lay in the range of 1 to 20 nM on FGFR1; 20 to 100 nM on FGFR2; 1 to 20 nM at FGFR3; 1 to 20 nM at FGFR3 (V555M); 1 to 20 nM at FGFR4.
Regarding `CCOC(=O)N1CCC2(CC1)CN(c1ncc(-c3n[nH]c4ccc(O[C@H](C)c5c(Cl)cncc5Cl)cc34)cn1)C2` [Example 126, ethyl 2-[5-[5-[(1R)-1-(3,5-dichloro-4-pyridyl)ethoxy]-1H-indazol-3-yl]pyrimidin-2-yl]-2,7-diazaspiro[3.5]nonane-7-carboxylate], the Kd fell in the range of 100 to 300 nM on FGFR1; 100 to 300 nM on FGFR2; 1 to 20 nM on FGFR3; 1 to 20 nM at FGFR3 (V555M); 1 to 20 nM at FGFR4.
In the case of `C[C@@H](Oc1ccc2[nH]nc(-c3cnc(N4CC5(CCCNC5)C4)nc3)c2c1)c1c(Cl)cncc1Cl` [Example 132, 3-[2-(2,8-diazaspiro[3.5]nonan-2-yl)pyrimidin-5-yl]-5-[(1R)-1-(3,5-dichloro-4-pyridyl)ethoxy]-1H-indazole], the Kd on FGFR1, at FGFR2, on FGFR3, at FGFR3 (V555M) and on FGFR4 was 1 to 20 nM each time.
For `C[C@@H](Oc1ccc2[nH]nc(-c3cnc(N4CC5(CCNCC5)C4)nc3)c2c1)c1c(Cl)cncc1Cl` [Example 133, 3-[2-(2,7-diazaspiro[3.5]nonan-2-yl)pyrimidin-5-yl]-5-[(1R)-1-(3,5-dichloro-4-pyridyl)ethoxy]-1H-indazole], the Kd on FGFR1, on FGFR2, at FGFR3, on FGFR3 (V555M) and on FGFR4 was 1 to 20 nM in each case.
As for `C[C@@H](Oc1ccc2[nH]nc(-c3cnc(N4CC5(CCCN(S(C)(=O)=O)C5)C4)nc3)c2c1)c1c(Cl)cncc1Cl` [Example 134, 5-[(1R)-1-(3,5-dichloro-4-pyridyl)ethoxy]-3-[2-(8-methylsulfonyl-2,8-diazaspiro[3.5]nonan-2-yl)pyrimidin-5-yl]-1H-indazole], the Kd at FGFR1 lay in the range of 20 to 100 nM; at FGFR2, 20 to 100 nM; on FGFR3 it was 1 to 20 nM; on FGFR3 (V555M), 1 to 20 nM; at FGFR4 it was 1 to 20 nM.
Take `Cc1cnnc(C)c1[C@H](C)Oc1ccc2[nH]nc(-c3cnc(N4CC5(CCS(=O)(=O)C5)C4)nc3)c2c1` [Example 147, 2-[5-[5-[(1S)-1-(3,5-dimethylpyridazin-4-yl)ethoxy]-1H-indazol-3-yl]pyrimidin-2-yl]-6λ^6-thia-2-azaspiro[3.4]octane 6,6-dioxide]: the Kd at FGFR1, on FGFR2, on FGFR3, at FGFR3 (V555M) and at FGFR4 was above 300 nM throughout.
`Cc1cnnc(C)c1[C@H](C)Oc1ccc2[nH]nc(-c3ccc(N4CC5(C4)CN(S(C)(=O)=O)C5)nc3)c2c1` [Example 149, 5-[(1S)-1-(3,5-dimethylpyridazin-4-yl)ethoxy]-3-[6-(2-methylsulfonyl-2,6-diazaspiro[3.3]heptan-6-yl)-3-pyridyl]-1H-indazole]: the Kd at FGFR1 was above 300 nM; at FGFR2, 100 to 300 nM; at FGFR3 it was 20 to 100 nM; on FGFR3 (V555M), 20 to 100 nM; on FGFR4 it was 100 to 300 nM.
`COC(=O)N1CC2(C1)CN(c1ccc(-c3n[nH]c4ccc(O[C@H](C)c5c(C)cnnc5C)cc34)cn1)C2` [Example 150, methyl 6-[5-[5-[(1R)-1-(3,5-dimethylpyridazin-4-yl)ethoxy]-1H-indazol-3-yl]-2-pyridyl]-2,6-diazaspiro[3.3]heptane-2-carboxylate]: the Kd on FGFR1, at FGFR2, on FGFR3, on FGFR3 (V555M) and at FGFR4 was 1 to 20 nM each time.
On to `CCOC(=O)N1CC2(C1)CN(c1ccc(-c3n[nH]c4ccc(O[C@@H](C)c5c(C)cnnc5C)cc34)cn1)C2` [Example 151, ethyl 6-[5-[5-[(1S)-1-(3,5-dimethylpyridazin-4-yl)ethoxy]-1H-indazol-3-yl]-2-pyridyl]-2,6-diazaspiro[3.3]heptane-2-carboxylate], for which the Kd at FGFR1 was above 300 nM; at FGFR2, 100 to 300 nM; at FGFR3, 20 to 100 nM; on FGFR3 (V555M), 1 to 20 nM; on FGFR4 it was 100 to 300 nM.
Take `Cc1cnnc(C)c1[C@@H](C)Oc1ccc2[nH]nc(-c3cnc(N4CCC5(CC4)CCS(=O)(=O)C5)nc3)c2c1` [Example 152, 8-[5-[5-[(1R)-1-(3,5-dimethylpyridazin-4-yl)ethoxy]-1H-indazol-3-yl]pyrimidin-2-yl]-2λ^6-thia-8-azaspiro[4.5]decane 2,2-dioxide]: the Kd at FGFR1 lay in the range of 20 to 100 nM; at FGFR2 it was 1 to 20 nM; at FGFR3 it was 1 to 20 nM; on FGFR3 (V555M) it was 1 to 20 nM; on FGFR4, 1 to 20 nM.
Take `COC(=O)N1CC2(C1)CN(c1ccc(-c3n[nH]c4ccc(O[C@@H](C)c5c(C)cnnc5C)cc34)cn1)C2` [Example 153, methyl 6-[5-[5-[(1S)-1-(3,5-dimethylpyridazin-4-yl)ethoxy]-1H-indazol-3-yl]-2-pyridyl]-2,6-diazaspiro[3.3]heptane-2-carboxylate]: the Kd was above 300 nM on FGFR1; 100 to 300 nM on FGFR2; 20 to 100 nM at FGFR3; 1 to 20 nM on FGFR3 (V555M); 100 to 300 nM at FGFR4.
In the case of `Cc1cnnc(C)c1[C@H](C)Oc1ccc2[nH]nc(-c3cnc(N4CCC5(CC4)CCS(=O)(=O)C5)nc3)c2c1` [Example 154, 8-[5-[5-[(1S)-1-(3,5-dimethylpyridazin-4-yl)ethoxy]-1H-indazol-3-yl]pyrimidin-2-yl]-2λ^6-thia-8-azaspiro[4.5]decane 2,2-dioxide], the Kd at FGFR1 was above 300 nM; at FGFR2 it was above 300 nM; at FGFR3, 100 to 300 nM; on FGFR3 (V555M), 20 to 100 nM; at FGFR4, 100 to 300 nM.
With `Cc1cnnc(C)c1[C@H](C)Oc1ccc2[nH]nc(-c3cnc(N4CC5(C4)CN(S(C)(=O)=O)C5)nc3)c2c1` [Example 155, 5-[(1S)-1-(3,5-dimethylpyridazin-4-yl)ethoxy]-3-[2-(2-methylsulfonyl-2,6-diazaspiro[3.3]heptan-6-yl)pyrimidin-5-yl]-1H-indazole], the Kd at FGFR1 was above 300 nM; at FGFR2, above 300 nM; at FGFR3 it was above 300 nM; at FGFR3 (V555M) it was above 300 nM; at FGFR4, 100 to 300 nM.
For the compound `Cc1cnnc(C)c1[C@@H](C)Oc1ccc2[nH]nc(-c3cnc(N4CC5(C4)CN(S(C)(=O)=O)C5)nc3)c2c1` [Example 156, 5-[(1R)-1-(3,5-dimethylpyridazin-4-yl)ethoxy]-3-[2-(2-methylsulfonyl-2,6-diazaspiro[3.3]heptan-6-yl)pyrimidin-5-yl]-1H-indazole], the dissociation constant (Kd) fell in the range of 100 to 300 nM on FGFR1; 20 to 100 nM on FGFR2; 1 to 20 nM on FGFR3; 1 to 20 nM at FGFR3 (V555M); 1 to 20 nM at FGFR4.
Consider `C[C@@H](Oc1ccc2[nH]nc(-c3cnc(N4CC5(CCNC5)C4)nc3)c2c1)c1c(Cl)cncc1Cl` [Example 158, 3-[2-(2,7-diazaspiro[3.4]octan-2-yl)pyrimidin-5-yl]-5-[(1R)-1-(3,5-dichloro-4-pyridyl)ethoxy]-1H-indazole], for which the dissociation constant Kd lay within 20 to 100 nM at FGFR1; 20 to 100 nM at FGFR2; 1 to 20 nM on FGFR3; 1 to 20 nM on FGFR3 (V555M); 1 to 20 nM on FGFR4.
With `C[C@@H](Oc1ccc2[nH]nc(-c3ccc(N4CC5(CCCNC5)C4)nc3)c2c1)c1c(Cl)cncc1Cl` [Example 161, 3-[6-(2,8-diazaspiro[3.5]nonan-2-yl)-3-pyridyl]-5-[(1R)-1-(3,5-dichloro-4-pyridyl)ethoxy]-1H-indazole], the Kd at FGFR1, on FGFR2, at FGFR3, on FGFR3 (V555M) and on FGFR4 was 1 to 20 nM each time.
In the case of `C[C@@H](Oc1ccc2[nH]nc(-c3ccc(N4CC5(CCNC5)C4)nc3)c2c1)c1c(Cl)cncc1Cl` [Example 164, 3-[6-(2,7-diazaspiro[3.4]octan-2-yl)-3-pyridyl]-5-[(1R)-1-(3,5-dichloro-4-pyridyl)ethoxy]-1H-indazole], the Kd on FGFR1, at FGFR2, on FGFR3, at FGFR3 (V555M) and at FGFR4 was 1 to 20 nM throughout.
